Reference: US20220313170A1, “METHOD OF INCREASING COGNITIVE FUNCTION WITH GLUTAMATE RECEPTOR AGONIST” (priority 2019, published 2022)

Assays:
[1] = humans; cited from earlier work
[2] = test system: subjects with schizophrenia; assay: Correlation of pre-treatment resting-state EEG metrics (power law exponent, beta power) with response to poma treatment (MCCB domain scores), clinical trials NCT00845026 and NCT01052103; format: in vivo, human; conditions: subgroups of patients identified by EEG metrics (Examples 1-3)
Text: The power spectrum of resting state EEG signals, when viewed in the frequency domain (that is, with frequency of oscillation on the x-axis and power on the y-axis), forms roughly a straight line, when viewed on a log-log plot; see FIG.5 (from Miller et al. […] PLoS Comput Biol 5(12): e1000609)
Mathematically, this can be expressed as log (P)=k−βlog (f), or equivalently, P αf−β1/fβ), where P=power, f=frequency, −β is the slope of the fitted line, and k is a constant. This phenomenon is known by various terms, such as a “power law” spectrum or “1/f noise”. It is often referred to as “scale invariant” or “fractal” behavior (Lowen and Teich, 2005), as the power law exponent, β, is constant regardless of the resolution at which it is calculated.
This study used data from clinical trials NCT00845026 (N=117) and NCT01052103 (N=196), which studied male and female subjects with schizophrenia treated with poma vs. antipsychotic agent standard of care. […] We calculated only power at the stimulated frequency and, for recordings in the resting state, the power law exponent (PLE; also known as the “fractal exponent”). […] We calculated all predictive measures for each EEG electrode. […]

[3] = test system: subjects with schizophrenia; conditions: cited from earlier work

SMILES	Oral absorption and bioavailability [1]	Cognitive function in measures of working memory, reasoning/problem solving, and attention/vigilance [2]	Efficacy versus placebo as determined with PANSS total scores ([3]; clinical studies, halted)	Dosage shown to be efficacious ([3]; early phase II monotherapy trial) [mg BID]
N[C@@]1(C(=O)O)CS(=O)(=O)[C@H]2[C@H](C(=O)O)[C@H]21 [pomaglumetad]	low			
CSCC[C@H](N)C(=O)N[C@@]1(C(=O)O)CS(=O)(=O)[C@H]2[C@H](C(=O)O)[C@H]21 [poma, Pomaglumetad methionil]		significant improvement in cognitive function	not significantly more efficacious than the placebo	40
